# Measured values reported in patent US5912229A, “Use of a pharmaceutical composition comprising an appetite-suppressing peptide” (Novo Nordisk Als, priority 1996, dated 1999).
# Ends that are not written are not given here.
# How the values were obtained:
# fasted rats = details: cited from earlier work
# Mice [1] = assay: Appetite suppression in mice, infant formula milk (Complan) consumption; type: in vivo
# Description: (§1) Mice were deprived of their normal feed for two days and given free access to a 20% sucrose solution on the first day of feed deprivation. After the 2-day feed deprivation period, mice were injected intraperitoneally with 0.5 ml of a solution containing the test substance. Thirty minutes after injection, individual mice were placed in one of eight 15 cm^2 test box with a stainless steel grid floor and a glass drinking tube which projected into the box. The drinking tube was connected to a reservoir containing a 20% sucrose solution, and the interior of the drinking tube contained an electrode enabling the detection of drinking contacts with the solution by measuring the flow of a weak (unnoticeable) electric current through mice by means of an electronic apparatus connected to the drinking tube electrode and the stainless steel grid floor. Consumption of the sucrose solution was measured over a 10 minute period by electronically recording the total amount of contact with the sucrose solution during the test session. The degree of appetite suppression produced by a given test substance was determined by statistical comparison of the duration of sucrose consumption by control (vehicle treated) mice with that of mice treated with a test substance. The degree of appetite suppression in a treated group of mice was expressed as percent of the control groups response.
# The method is as in Example 5, but instead of 20% sucrose, a solution of infant formula milk (Complan®) is used. The test substance is dissolved in a vehicle consisting of phosphate buffered saline with 1% albumin. Test substances dissolved in vehicle are injected either intravenously (IV) in a volume of 100 microliters, or intra-cerebroventricularly (ICV) in a volume of 10 microliters.
# Mice were tested for appetite suppression as described in Example 8 after treatment with a test substance consisting of synthetic human GLP-2.
# Mice [2] = assay: Appetite suppression in mice, 20% sucrose solution consumption; type: in vivo; details: intraperitoneal injection, 50 micrograms
# Description: as §1, with “response. […]” for “response.”
molecule,measurement,setting,value
Glucagon,effect on food intake,"fasted rats; fasted rats, intraperitoneal administration of pharmacological doses",no effect on food intake
GLP-1,effect on feeding,"fasted rats; fasted rats, intracerebroventricular (ICV) administration",inhibited feeding
same,effect on feeding behaviour,fasted rats; peripheral administration,no effect on feeding behaviour
"CC[C@H](C)[C@H](NC(=O)[C@H](Cc1ccccc1)NC(=O)[C@H](CC(=O)O)NC(=O)[C@H](CCCNC(=N)N)NC(=O)[C@H](C)NC(=O)[C@H](C)NC(=O)[C@H](CC(C)C)NC(=O)[C@H](CC(N)=O)NC(=O)[C@H](CC(=O)O)NC(=O)[C@H](CC(C)C)NC(=O)[C@@H](NC(=O)[C@@H](NC(=O)[C@H](CC(N)=O)NC(=O)[C@H](CCSC)NC(=O)[C@H](CCC(=O)O)NC(=O)[C@H](CC(=O)O)NC(=O)[C@H](CO)NC(=O)[C@H](Cc1ccccc1)NC(=O)[C@H](CO)NC(=O)CNC(=O)[C@H](CC(=O)O)NC(=O)[C@H](C)NC(=O)[C@@H](N)Cc1c[nH]cn1)[C@@H](C)O)[C@@H](C)CC)C(=O)N[C@@H](CC(N)=O)C(=O)N[C@@H](Cc1c[nH]c2ccccc12)C(=O)N[C@@H](CC(C)C)C(=O)N[C@H](C(=O)N[C@@H](CCC(N)=O)C(=O)N[C@H](C(=O)N[C@@H](CCCCN)C(=O)N[C@H](C(=O)N[C@H](C(=O)N[C@@H](CC(=O)O)C(=O)O)[C@@H](C)O)[C@@H](C)CC)[C@@H](C)O)[C@@H](C)CC [synthetic human GLP-2, human GLP-2]",suppression of milk consumption,"Mice [1]; ICV injection, 3 micrograms",32%
same,suppression of milk consumption,"Mice [1]; ICV injection, 10 micrograms",35%
same,suppression of milk consumption,"Mice [1]; IV injection, 3 micrograms",24%
"HADGSFSDEMNTVLDNLATRDFINWLLHTKITD [synthetic porcine GLP-2, porcine GLP-2]",suppression of sucrose consumption,Mice [2],38%
